In patent US20220062291A1, “COMPOSITIONS AND METHODS OF TREATING CANCERS BY ADMINISTERING A PHENOTHIAZINE-RELATED DRUG THAT ACTIVATES PROTEIN PHOSPHATASE 2A (PP2A) WITH REDUCED INHIBITORY ACTIVITY TARGETED TO THE DOPAMINE D2 RECEPTOR AND ACCOMPANYING TOXICITY” (DANA-FARBER CANCER INSTITUTE, INC., priority 2018, published 2022):

Columns and labels:
[1] = female, C57BL/6, mouse, in vivo, po, 1 week
Experimental: (§4) PPZ and iPAP1 were each given per orally to eight-week-old female C57BL/6 mice every 24 hours (n=3 for each cohort). The mice were monitored for four recognized types of dopamine receptor D2 mediated toxicity, namely: i) general activity; ii) reactivity to touch; iii) fear/startle to sound; and iv) tone of abdominal muscle. Behavioral monitoring was done at 15 minutes, 1 hour, 4 hours and 24 hours after each treatment. PPZ and iPAP1 were each administered at 0, 2.5, 5, 10, 20 and 40 mg/kg body weight/dose, and iPAP1 was also administered at 80 mg/kg body weight/dose.

[2] = tested on: p-ERK and p-AKT in KOPT-K1 cells; experiment: Western blot of p-ERK and p-AKT; assay type: cell-based, human; settings: three hours
Description: Levels of the PP2A endogenous substrates p-ERK and p-AKT in KOPT-K1 cells were examined because of the importance of the MAPK/ERK and PI3K/AKT/mTOR pathways in cancer cells.

PP2A subunits [3] = experiment: Co-immunoprecipitation of PP2A subunits (holoenzyme assembly); set-up: species or system human; settings: KOPT-K1 cells, 10 μM, 24 hours
Description: (§1) The biochemical activity of iPAP1 was further characterized by addressing whether it acts exclusively on the three identified subunits to mediate the assembly of PP2A, or whether other proteins expressed by T-ALL cells are also required. Using baculovirus vectors, each subunit of PP2A was first expressed with a C-terminal tag in Hi5 insect cells, and then purified the subunit proteins using columns with antibodies against the tags bound to agarose beads (see, Example 5, FIG. 13-FIG. 14). […] PP2A is a unique enzyme consisting of three subunits and it needs to be properly assembled into a holoenzyme before it mediates phosphatase activity. […] The protein lysates were then immunoprecipitated with anti-PPP2CA antibody or normal IgG as a control, and the precipitates were immunoblotted with antibodies specifically detecting each of the PP2A subunits. […] Nuclear and cytoplasmic fractions were separated using NE-PER™ Nuclear and Cytoplasmic Extraction Kit (Thermo Fisher Scientific), and each of the subunits of PP2A was analyzed by western blot. Histone H3 and α tubulin expression levels were used as loading controls for nuclear and cytoplasmic fractions, respectively. […] Lysates were immunoprecipitated using an anti-PPP2CA antibody, and then blotted with antibodies specific for each PP2A subunit. […] The results of a co-immunoprecipitation assay using an anti-PPP2CA antibody for immunoprecipitation in KOPT-K1 cells treated with SMAP at 10 μM or control DMSO for 24 hours before they were lysed for protein extraction are illustrated in FIG. 9B. Lysates were immunoprecipitated using an anti-PPP2CA antibody, and then blotted with antibodies specific for each PP2A subunit.

in vivo = settings: female, mouse, po
Experimental: as §4

[4] = tested on: 274 cancer cell lines from 39 distinct types of human cancers; experiment: PRISM analysis of cell viability; assay type: cell-based; settings: 5 μM, 5 days
Experimental: Many other human cell lines from hematologic malignancies and solid tumors were as sensitive as the most sensitive T-ALL cell lines to treatment with iPAP1. Cell lines with a relative viability below the dashed line at 0.5 have an IC50 value for iPAP1 below 5 μM.

[5] = biological target: tubulin from porcine brain (Sus scrofa, UniProt P02550+P02554); experiment: Fluorescence-based tubulin polymerization assay; settings: concentrations of up to 2.5 or 5 μM
Experimental: Briefly, free tubulin (2 mg/mL) in buffer supplemented with 1 mM GTP and 15% glycerol was employed. Then, the test compounds were added to tubulin solution and changes in the fluorescence intensity (ex=370 nm, em=445 nm) were measured by kinetic reading at 37° C. using SpectraMax® M5 Microplate reader (Molecular Devices LLC).

KOPT-K1 cells = experiment: KOPT-K1 cell viability (PrestoBlue), IC50 after 72 hours; assay type: cell-based, human
Experimental: (§2) For IC50 calculation, KOPT-K1 cells were treated with each of the compounds at various concentrations for 72 hours, followed by the determination of viable cell numbers with PrestoBlue® cell viability reagent. For the PP2A phosphatase activity assay, KOPT-K1 cells were treated with each of the compounds at 10 μM for 3 hours before phosphatase activity was measured. Dopamine D2 receptor activity was monitored in HEK293T cells coexpressing the dopamine D2 receptor, modified G protein and SRE luciferase reporter. Cells were treated with each of the compound at 10 μM for 3 hours, then lysed for the luciferase reporter assay.
(§3) For IC50 calculations, KOPT-K1 cells were treated with each of the compound at various concentrations for 72 hours, then their viability was examined by PrestoBlue® Cell Viability Reagent (Thermo Fisher Scientific). For PP2A phosphatase activity assay, KOPT-K1 cells were treated with each of the compound at 10 μM for three hours before the activity of PP2A was quantified using PP2A Immunoprecipitation Phosphatase Assay Kit (Merck Millipore®). DRD2 activity was monitored in HEK293T cells expressing DRD2, modified G protein and SRE luciferase reporter. Cells were treated with each of the compounds at 10 μM for three hours, then lysed for luciferase reporter assay. […] The biochemical assays were performed as indicated in Examples 7 and 8.

PP2A = biological target: T1, PP2A (Homo sapiens, UniProt P30153+P67775+Q16537); experiment: PP2A phosphatase activity in treated KOPT-K1 cells; assay type: cell-based
T1 construct: are endogenously expressed by KOPTK1 cells; endogenous in cells; host or cells: KOPT-K1 T-ALL cells / lysates
Experimental: Data are presented as means±s.d. (n=3, biological replicates). KO; knock out. **P<0.01, ***P<0.001 by student's t-test.
as §2
as §3, with “For PP2A phosphatase activity assay, KOPT-K1 cells were treated with each of the compound at 10 μM for three hours before the activity of PP2A was quantified using PP2A Immunoprecipitation Phosphatase Assay Kit (Merck Millipore®).” left out

[6] = tested on: PLK1, PLK4, AURKA, KIF11, SASS6, RCC1, HAUS8, TPX2, PCNT, CENPJ and TUBG1 in KOPT-K1 cells; experiment: Relative mRNA expression of spindle monopolarity genes; assay type: cell-based, human; settings: 1 μM, 6 hours
Experimental: The relative mRNA expression of genes whose inducible CRISPR-cas9 knockout causes cell cycle arrest in prometaphase yielding spindle monopolarity (PLK1, PLK4, AURKA, KIF11, SASS6, RCC1, HAUS8, TPX2, PCNT, CENPJ and TUBG1) (McKinley et al., Dev. Cell 40:405-420 (2017)) was evaluated in […] cell lines. […] The results are illustrated in FIG. 33.

PP2A subunits [7] = biological target: T2, PP2A subunits (Homo sapiens, UniProt P30153+P67775+Q16537); experiment: Co-immunoprecipitation of PP2A subunits (holoenzyme assembly); settings: purified subunits from insect cells
T2 construct: are endogenously expressed by KOPTK1 cells; endogenous in cells; host or cells: KOPT-K1 T-ALL cells / lysates
Description: as §1

T1 sequence (P30153 2-589): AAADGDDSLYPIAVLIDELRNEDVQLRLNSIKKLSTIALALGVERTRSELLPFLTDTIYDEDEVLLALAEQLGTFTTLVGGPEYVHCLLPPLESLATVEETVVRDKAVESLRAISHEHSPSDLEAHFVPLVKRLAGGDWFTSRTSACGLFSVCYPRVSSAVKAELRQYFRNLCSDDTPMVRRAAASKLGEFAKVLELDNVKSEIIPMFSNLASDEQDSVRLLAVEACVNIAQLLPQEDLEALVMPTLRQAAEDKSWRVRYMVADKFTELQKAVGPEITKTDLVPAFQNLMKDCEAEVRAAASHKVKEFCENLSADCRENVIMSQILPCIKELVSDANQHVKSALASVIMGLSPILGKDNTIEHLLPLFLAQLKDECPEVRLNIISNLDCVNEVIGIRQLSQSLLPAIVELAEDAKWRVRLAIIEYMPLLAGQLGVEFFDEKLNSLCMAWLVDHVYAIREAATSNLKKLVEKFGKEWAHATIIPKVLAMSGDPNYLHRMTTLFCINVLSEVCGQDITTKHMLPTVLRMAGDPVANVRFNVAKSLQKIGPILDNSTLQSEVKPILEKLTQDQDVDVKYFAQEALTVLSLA
T1 sequence (P67775 whole entry): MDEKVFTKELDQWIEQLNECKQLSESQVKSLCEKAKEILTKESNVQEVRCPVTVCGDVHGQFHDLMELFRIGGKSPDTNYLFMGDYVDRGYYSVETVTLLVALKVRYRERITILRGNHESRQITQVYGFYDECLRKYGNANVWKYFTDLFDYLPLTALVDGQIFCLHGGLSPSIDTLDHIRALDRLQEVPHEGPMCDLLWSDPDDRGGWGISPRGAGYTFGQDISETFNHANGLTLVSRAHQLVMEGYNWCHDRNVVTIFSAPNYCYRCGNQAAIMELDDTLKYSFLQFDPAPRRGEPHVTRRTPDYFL
T1 sequence (Q16537 2-467): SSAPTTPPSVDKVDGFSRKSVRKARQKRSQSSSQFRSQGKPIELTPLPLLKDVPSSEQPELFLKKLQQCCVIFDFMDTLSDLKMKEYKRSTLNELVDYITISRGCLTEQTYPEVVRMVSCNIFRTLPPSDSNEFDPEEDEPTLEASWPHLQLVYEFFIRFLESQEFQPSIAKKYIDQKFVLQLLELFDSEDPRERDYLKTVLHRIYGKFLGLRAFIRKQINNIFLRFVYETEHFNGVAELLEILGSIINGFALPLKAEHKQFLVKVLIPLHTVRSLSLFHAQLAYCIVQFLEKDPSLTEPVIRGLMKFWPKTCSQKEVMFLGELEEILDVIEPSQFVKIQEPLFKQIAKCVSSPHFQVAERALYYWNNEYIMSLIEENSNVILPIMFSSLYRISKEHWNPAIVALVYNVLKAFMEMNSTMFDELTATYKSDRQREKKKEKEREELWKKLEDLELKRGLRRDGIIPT
Sequence of tubulin from porcine brain (P02550 whole entry): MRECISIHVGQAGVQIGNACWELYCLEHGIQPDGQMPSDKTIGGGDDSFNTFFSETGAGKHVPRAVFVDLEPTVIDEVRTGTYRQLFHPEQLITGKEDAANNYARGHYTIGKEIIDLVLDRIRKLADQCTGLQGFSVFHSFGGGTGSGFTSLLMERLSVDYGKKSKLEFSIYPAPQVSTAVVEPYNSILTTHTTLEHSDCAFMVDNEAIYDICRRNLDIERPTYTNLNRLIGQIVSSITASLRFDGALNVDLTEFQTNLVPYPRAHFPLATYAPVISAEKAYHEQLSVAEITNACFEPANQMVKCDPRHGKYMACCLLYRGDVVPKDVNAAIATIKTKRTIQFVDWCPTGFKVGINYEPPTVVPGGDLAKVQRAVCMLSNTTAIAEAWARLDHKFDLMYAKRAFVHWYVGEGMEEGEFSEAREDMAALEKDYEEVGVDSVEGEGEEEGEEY
Sequence of tubulin from porcine brain (P02554 whole entry): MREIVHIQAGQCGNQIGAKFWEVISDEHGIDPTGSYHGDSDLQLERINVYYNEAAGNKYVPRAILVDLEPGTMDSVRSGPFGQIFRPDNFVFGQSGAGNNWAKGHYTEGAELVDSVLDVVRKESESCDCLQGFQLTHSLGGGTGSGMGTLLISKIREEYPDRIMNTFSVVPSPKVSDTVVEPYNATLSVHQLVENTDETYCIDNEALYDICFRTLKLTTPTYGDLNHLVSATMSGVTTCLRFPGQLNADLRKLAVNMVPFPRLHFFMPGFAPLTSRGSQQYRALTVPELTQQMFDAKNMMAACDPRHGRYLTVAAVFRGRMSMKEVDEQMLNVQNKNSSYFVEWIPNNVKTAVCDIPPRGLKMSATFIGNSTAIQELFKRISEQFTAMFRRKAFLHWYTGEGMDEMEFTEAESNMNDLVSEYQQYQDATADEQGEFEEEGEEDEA
T2 sequence (P30153 2-589): as the sequence (P30153 2-589) above
T2 sequence (P67775 whole entry): as the sequence (P67775 whole entry) above
T2 sequence (Q16537 2-467): as the sequence (Q16537 2-467) above

Row | SMILES | dose showing neurological toxicity [1] | phosphorylation of ERK and AKT [2] | PP2A subunits co-immunoprecipitated with anti-PPP2CA antibody (PP2A subunits [3]) | MTD at 1 week (in vivo) | cell killing compared with PPZ in every cell line [4] | inhibition of tubulin polymerization [5] | IC50 (KOPT-K1 cells; Homo sapiens, KOPTK1, 72 h, 72 hours, PrestoBlue, read-out: IC50 value against KOPT-K1 cells) | more active than PPZ for mediating T-ALL cell killing (KOPT-K1 cells; KOPT-K1, 72 hours) | more active than PPZ for stimulating PP2A phosphatase activity (PP2A; KOPT-K1, 10 μM for three hours) | phosphatase activity of PP2A relative to basal level (PP2A; WT KOPT-K1 cells, 1 μM) | relative mRNA expression [6] | assembly of purified PPP2R1A, PPP2CA and PPP2R5E (PP2A subunits [7])
1 | OCCN1CCN(CCCN2c3ccccc3Sc3ccc(Cl)cc32)CC1 [PPZ, perphenazine, reference compound] | ≥ 5 mg/kg body weight/dose | significantly reduced | PPP2CA uniquely binds to PPP2R1A and PPP2R5E | 2.5 mg/kg | – | – | – | – | – | – | – | –
2 | COc1ccc(C(=O)N2c3ccccc3Sc3ccc(Cl)cc32)cc1 [iPAP1] | – | – | – | – | more active in cell killing than was PPZ | inhibition of tubulin polymerization was not detected | ~0.4 µM | 10 times | 10 times | up to twice its basal level | significantly down-regulated the expression levels of most of these genes | assembled into an active enzyme complex
